Experimental data taken from US9630916B2, “Organocatalysts of oxidative protein folding” (Wisconsin Alumni Research Foundation, priority 2014, dated 2017).
Where “and” joins values, the source holds several entries; their conditions need not be identical. Equal values may be shown once. Read-outs that look alike come from different tables or passages of the source.

T1: sRNase A (Bos taurus, UniProt P61823)
T1 construct: purchased Sigma-Aldrich
T1 sequence (P61823 27-150): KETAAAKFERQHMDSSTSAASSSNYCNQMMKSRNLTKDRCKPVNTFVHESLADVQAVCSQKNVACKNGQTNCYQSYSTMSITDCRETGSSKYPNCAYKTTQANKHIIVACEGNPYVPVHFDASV

B1: PDI: enzyme protein disulfide isomerase (EC 5.3.4.1); bovine liver PDI from Sigma-Aldrich used in the assay (protein, UniProt P05307 21-510, looked up)
Protein disulfide-isomerase: APDEEDHVLVLHKGNFDEALAAHKYLLVEFYAPWCGHCKALAPEYAKAAGKLKAEGSEIRLAKVDATEESDLAQQYGVRGYPTIKFFKNGDTASPKEYTAGREADDIVNWLKKRTGPAASTLSDGAAAEALVESSEVAVIGFFKDMESDSAKQFFLAAEVIDDIPFGITSNSDVFSKYQLDKDGVVLFKKFDEGRNNFEGEVTKEKLLDFIKHNQLPLVIEFTEQTAPKIFGGEIKTHILLFLPKSVSDYEGKLSNFKKAAESFKGKILFIFIDSDHTDNQRILEFFGLKKEECPAVRLITLEEEMTKYKPESDELTAEKITEFCHRFLEGKIKPHLMSQELPDDWDKQPVKVLVGKNFEEVAFDEKKNVFVEFYAPWCGHCKQLAPIWDKLGETYKDHENIVIAKMDSTANEVEAVKVHSFPTLKFFPASADRTVIDYNGERTLDGFKKFLESGGQDGAGDDDDLEDLEEAEEPDLEEDDDQKAVKDEL

Legend:
sRNase A = biological target: T1, sRNase A; assay: Assay for disulfide-bond isomerization activity: unscrambling of sRNase A to give native RNase A; format: biochemical, bovine; settings: for Folding yield (%): native RNase A from sRNase A, 1 mM catalyst, 30° C., 50 mM Tris-HCl pH 7.6, GSH 1.0 mM, GSSG 0.2 mM, after 5 h
Protocol: FIGS. 4A and 4B are graphs illustrating catalysis of disulfide-bond isomerization by PDI and PDI mimics 1-7. (4A) Is a graph of the time-course for the unscrambling of sRNase A to give native RNase A. All reactions were performed at 30° C. in 50 mM Tris-HCl buffer, pH 7.6, containing GSH (1.0 mM), GSSG (0.2 mM), and PDI or dithiol 1-7 (1.0 mM). (4B) Is a graph of yield of native RNase A achieved by PDI mimics 2-7 after 5 h as a function of the calculated log P values listed in Table 1.
Enzymatic catalysis provides an extremely sensitive measure of native protein structure. RNase A contains eight cysteine residues, which could form 105 (=7×5×3×1) distinct fully oxidized species, only one of which gives rises to enzymatic activity (FIG. 3). Accordingly, the ability of this panel of compounds to catalyze the isomerization of “scrambled” RNase A (sRNase A) was tested. “Scrambled” RNase A is a random mixture of oxidized species, compared to its native state. The isomerization reaction was monitored by measuring the gain of catalytic activity.
sRNase was prepared as described previously, and validated by its having low ribonucleolytic activity and few free thiols according to Ellman's assay. Bovine liver PDI was from Sigma-Aldrich (product #P3818). The activation of sRNase A in the presence of refolding catalysts was determined as described previously. Refolding reactions were performed at 30° C. in 50 mM Tris-HCl buffer, pH 7.6, containing GSH (1.0 mM), GSSG (0.2 mM), and catalyst (1.0 mM). Organocatalysts were delivered from 100-fold concentrated stock solutions in DMSO. Reactions were initiated by the addition of sRNase A to a final concentration of 5 μg/mL. Reaction progress was monitored by quantifying the cleavage of the substrate 6-FAM-dArUdAdA-6-TAMRA at 493/515 nm, as described previously. Assays were performed in triplicate at ambient temperature in a black polystyrene 96-well plate, in 200 μL of 0.10 M MES-NaOH buffer, pH 6.0, containing NaCl (0.10 M). The resulting fluorescence data were fitted to the equation kcat/KM=(ΔI/Δt)/(If−I0)[E], in which ΔI/Δt is the initial reaction velocity, I0 is the fluorescence intensity before addition of any ribonuclease, If is the fluorescence intensity after complete substrate hydrolysis, and [E] is the total ribonuclease concentration. Reaction progress was monitored every hour until the increase in activity leveled off (˜5 h). In FIG. 4A, data were fitted to eq 2. [active RNase A]=[sRNase A]t=0(1−e^[catalyst]tk^obs) (2)

[1] = Determination of thiol pKa values (A238 vs pH); format: physicochemical; settings: potassium phosphate buffers of varied pH, absorbance at 238 nm, 0.10 M potassium phosphate buffers
Protocol: (§1) Dithiol 2 was synthesized from diethylenetriamine in a few high-yielding steps (see: The Examples). Thiol pKa values were measured by monitored the thiols A238 am as a function of pH. […] These values are slightly less than those of BMC (Table 1), presumably due to the introduction of an additional electronegative nitrogen atom. To determine the reduction potential of the oxidized form of the dithiol, equimolar amounts of dithiol 2 and oxidized β-mercaptoethanol were equilibrated and the amount of each reduced and oxidized species was quantitated with analytical HPLC. […] Finally, to probe the effect of increasing hydrophobicity on catalyzing the formation of native disulfide bonds in proteins, dithiols 3-8 were synthesized.
The thiol pKa values for 2 and 7 were determined by closely following a procedure reported previously that exploits the elevated absorbance of the deprotonated thiolate at 238 nm. […] [9, 55]
In eq 1, CT is the total thiol concentration, εSH^SH is the extinction coefficient of the doubly protonated form of 2 or 7, εSH^S− is the extinction coefficient of the singly protonated form of 2 or 7, and εS−^S− is the extinction coefficient of the doubly deprotonated form of 2 or 7.

[2] = Determination of disulfide E°′ (equilibration with oxidized β-mercaptoethanol, analytical HPLC, Nernst equation); format: physicochemical; settings: equilibrium with βME^ox, mean of three measurements
Protocol: as §1
The reduction potentials of BMC, 2, and 7 were determined as described previously. Briefly, an equilibrium was established between reduced BMC (or 2, 5, or 7) and βME^OX, and analyzed with analytical HPLC. The equilibrium concentrations were determined by integration of the peaks corresponding to βME and βME^ox. From these concentrations, the Keq for the reaction was determined and the reduction potential of BMC (or 2 or 7) was then calculated using the Nernst equation and EβME^OX^∘′=−0.260 V. The values reported are the mean (±SE) of three separate measurements for each compound

[3] = cited from earlier work
[4] = PDI active-site disulfide; literature value [21, 22]; cited from earlier work
[5] = higher of two thiol pKa values, read-out: thiol pKa (second value)
[6] = lower of two thiol pKa values, read-out: thiol pKa (first value)

Molecule | Folding yield (%) (sRNase A) | pKa [1, 5] | pKa [1, 6] | Disulfide E°′ [2] [V] | other results
O=C(CS)NCCN(CCNC(=O)CS)C(=O)c1ccccc1 [Dithiol 6] | 60 ± 2 | – | – | – | –
O=C(CS)NCCNCCNC(=O)CS [Dithiol 2] | 50 ± 2 | 9.2 ± 0.1 | 8 ± 0.2 | – | Disulfide E°′ ([2]; listed as 2): −0.192 V; Disulfide E°′ ([2]; listed as dithiol 2): −0.192±0.003 V
CC(=O)N(CCNC(=O)CS)CCNC(=O)CS [Dithiol 3] | 45 ± 2 | – | – | – | –
CCCC(=O)N(CCNC(=O)CS)CCNC(=O)CS [Dithiol 4] | 54 ± 4 | – | – | – | –
CCCCCC(=O)N(CCNC(=O)CS)CCNC(=O)CS [Dithiol 5] | 57 ± 1 | 9.3 ± 0.3 | 8.1 ± 0.3 | −0.203 | –
CCc1ccc(C(=O)N(CCNC(=O)CS)CCNC(=O)CS)cc1 [Dithiol 7] | 66 ± 2 | 9.4 ± 0.2 | 8.1 ± 0.2 | −0.206 | increase of the yield of folded RNase A versus the uncatalyzed reaction (sRNase A; relative to uncatalyzed reaction (45 ± 2 %)): 47%
O=C(CS)N[C@@H]1CCCC[C@H]1NC(=O)CS (racemic) [Dithiol 1, (±)-trans-1,2-bis(mercaptoacetamido)cyclohexane, reference compound] | 42 ± 2 | – | – | −0.232 | thiol pKa (first value) ([3]; values from ref. [30]): 8.3; thiol pKa (second value) ([3]; values from ref. [30]): 9.9
B1 | 87 ± 2 | – | – | – | pKa ([3]; N-terminal cysteine in the active site of PDI, literature value): 6.7; Disulfide E°′ [4]: −0.18 V and −0.180 V
